Measured values taken from patent US11225505B2, “Antimicrobial polymyxin derivative compounds” (MONASH UNIVERSITY, priority 2015, dated 2022).
≈ marks a conversion by molar mass, not a printed value. Where a SMILES comes first, the peptide text is derived from it. Bridges are numbered along the chain shown (N, C = ends). [ ]: non-standard residue; d: D form. The star is where a group is joined. Benzofuran(2-CO) = O=C(c1cc2ccccc2o1)*; X63 = O=C(c1ccc(C(F)(F)F)nc1Cl)*; X5 = Cc1ccc2nc(C(=O)*)cn2c1; X50 = O=C(c1sc(Br)cc1Br)*; X29 = O=C(c1cc(Cl)ccn1)*; X33 = O=C(c1cncc(Br)c1)*; Dab = NCC[C@H](N)C(=O)O; X10 = O=C(c1cc(Br)cs1)*; Abu = CC[C@H](N)C(=O)O; Dap = NC[C@H](N)C(=O)O

Tests used:
Assay type in all cases: cell-based
[1] = test system: Klebsiella pneumoniae Kp BM1; conditions: Kp BM1
Procedure: (§1) MICs of the lipopeptides (trifluoroacetic acid salt, TFA) were determined by broth microdilution in cation-adjusted Mueller-Hinton broth (CAMHB) (Oxoid Australia, Thebarton, SA, Australia) according to the Clinical and Laboratory Standards Institute protocol (Clinical and Laboratory Standards Institute, Performance standards for antimicrobial susceptibility testing; twentyforth informational supplement M100-S24. Wayne, Pa., 2014). Polymyxin B sulphate was employed as the control. Antimicrobial activity of Compounds 1-104 against polymyxin-susceptible Gram-negative bacteria was examined. The following isolates were examined: Pseudomonas aeruginosa ATCC 27853, Pseudomonas aeruginosa FADDI-PA022*, Pseudomonas aeruginosa FADDI-PA01*, Pseudomonas aeruginosa FADDI-PA038*, Acinetobacter baumannii FADDI-AB034*, Acinetobacter baumannii ATCC 17978, Acinetobacter baumannii FADDI-AB030*, Klebsiella pneumoniae FADDI-KP032, Klebsiella pneumoniae FADDI-KP022*, Klebsiella pneumoniae Kp BM1*, Enterobacter cloacae FADDI-EC006, Enterobacter cloacae FADDI-EC001, and Enterobacter cloacae FADDI-EC003 (* Multi drug-resistant clinical isolates, § New Delhi Metallo-beta-lactamase-1 (NDM-1) producing). The results are illustrated in Tables 4 and 5.

[2] = test system: Acinetobacter baumannii FADDI-AB034; conditions: FADDI-AB034
Procedure: as §1

[3] = test system: Acinetobacter baumannii ATCC 17978; conditions: ATCC 17978
Procedure: as §1

[4] = test system: Klebsiella pneumoniae FADDI-KP032; conditions: FADDI-KP032
Procedure: as §1

[5] = test system: Klebsiella pneumoniae FADDI-KP022; conditions: FADDI-KP022
Procedure: as §1

[6] = test system: Pseudomonas aeruginosa ATCC 27853; conditions: ATCC 27853
Procedure: as §1

[7] = test system: Enterobacter cloacae FADDI-EC006; conditions: FADDI-EC006
Procedure: as §1

[8] = test system: Pseudomonas aeruginosa FADDI-PA022; conditions: FADDI-PA022
Procedure: as §1

[9] = test system: Enterobacter cloacae FADDI-EC001; conditions: FADDI-EC001
Procedure: as §1

[10] = test system: Pseudomonas aeruginosa FADDI-PA038; conditions: FADDI-PA038
Procedure: as §1

[11] = test system: Enterobacter cloacae FADDI-EC003; conditions: FADDI-EC003
Procedure: as §1

[12] = test system: Pseudomonas aeruginosa FADDI-PA01; conditions: FADDI-
Procedure: as §1

[13] = test system: Acinetobacter baumannii FADDI-AB030; assay: microbe, parasite or virus in culture; conditions: FADDI-AB030
Procedure: as §1, with “Antimicrobial activity of Compounds 1-104 against polymyxin-susceptible Gram-negative bacteria was examined.” left out, “5. […]” for “5.”

| SMILES | Minimum inhibitory concentration [1] | Minimum inhibitory concentration [2] | Minimum inhibitory concentration [3] | Minimum inhibitory concentration [4] | Minimum inhibitory concentration [5] | Minimum inhibitory concentration [6] | Minimum inhibitory concentration [7] | Minimum inhibitory concentration [8] | Minimum inhibitory concentration [9] | Minimum inhibitory concentration [10] | Minimum inhibitory concentration [11] | Minimum inhibitory concentration [12] | Minimum inhibitory concentration [13] |
| --- | --- | --- | --- | --- | --- | --- | --- | --- | --- | --- | --- | --- | --- |
| CC[C@@H]1NC(=O)[C@@H](CC(C)C)NC(=O)[C@H](CCN)NC(=O)[C@@H](NC(=O)[C@H](CN)NC(=O)[C@@H](NC(=O)[C@H](CCN)NC(=O)c2cc(Br)cs2)[C@@H](C)O)CCNC(=O)[C@H]([C@@H](C)O)NC(=O)[C@H](CCN)NC(=O)[C@H](CCN)NC1=O [Compound 88] (X10-[Dab]T[Dap][Dab][Dab][dL][Abu][Dab][Dab]T; lactam 4-C) | 0.25 µg/mL (≈ 0.213 µM) | 0.5 µg/mL (≈ 0.425 µM) | 0.5 µg/mL (≈ 0.425 µM) | 0.5 µg/mL (≈ 0.425 µM) | <0.125 µg/mL | 0.5 µg/mL (≈ 0.425 µM) | 0.5 µg/mL (≈ 0.425 µM) | 0.5 µg/mL (≈ 0.425 µM) | <0.125 µg/mL | 0.5 µg/mL (≈ 0.425 µM) | 0.5 µg/mL (≈ 0.425 µM) | 0.5 µg/mL (≈ 0.425 µM) | 0.5 µg/mL (≈ 0.425 µM) |
| CC[C@@H]1NC(=O)[C@@H](CC(C)C)NC(=O)[C@H](CCN)NC(=O)[C@@H](NC(=O)[C@H](CN)NC(=O)[C@@H](NC(=O)[C@H](CCN)NC(=O)c2cc3ccccc3o2)[C@@H](C)O)CCNC(=O)[C@H]([C@@H](C)O)NC(=O)[C@H](CCN)NC(=O)[C@H](CCN)NC1=O [Compound 92] ({Benzofuran(2-CO)}-[Dab]T[Dap][Dab][Dab][dL][Abu][Dab][Dab]T; lactam 4-C) | 0.5 µg/mL (≈ 0.442 µM) | 0.5 µg/mL (≈ 0.442 µM) | 1 µg/mL (≈ 0.884 µM) | 0.5 µg/mL (≈ 0.442 µM) | <0.125 µg/mL | 0.5 µg/mL (≈ 0.442 µM) | <0.125 µg/mL | 0.5 µg/mL (≈ 0.442 µM) | <0.125 µg/mL | 0.5 µg/mL (≈ 0.442 µM) | 0.25 µg/mL (≈ 0.221 µM) | 0.5 µg/mL (≈ 0.442 µM) | 0.5 µg/mL (≈ 0.442 µM) |
| CC[C@@H]1NC(=O)[C@@H](CC(C)C)NC(=O)[C@H](CCN)NC(=O)[C@@H](NC(=O)[C@H](CN)NC(=O)[C@@H](NC(=O)[C@H](CCN)NC(=O)c2ccc(C(F)(F)F)nc2Cl)[C@@H](C)O)CCNC(=O)[C@H]([C@@H](C)O)NC(=O)[C@H](CCN)NC(=O)[C@H](CCN)NC1=O [Compound 40] (X63-[Dab]T[Dap][Dab][Dab][dL][Abu][Dab][Dab]T; lactam 4-C) | <0.125 µg/mL | <0.125 µg/mL | 0.5 µg/mL (≈ 0.419 µM) | <0.125 µg/mL | <0.125 µg/mL | 0.5 µg/mL (≈ 0.419 µM) | <0.125 µg/mL | 0.5 µg/mL (≈ 0.419 µM) | <0.125 µg/mL | 1 µg/mL (≈ 0.837 µM) | <0.125 µg/mL | 0.5 µg/mL (≈ 0.419 µM) | <0.125 µg/mL |
| CC[C@@H]1NC(=O)[C@@H](CC(C)C)NC(=O)[C@H](CCN)NC(=O)[C@@H](NC(=O)[C@H](CN)NC(=O)[C@@H](NC(=O)[C@H](CCN)NC(=O)c2cn3cc(C)ccc3n2)[C@@H](C)O)CCNC(=O)[C@H]([C@@H](C)O)NC(=O)[C@H](CCN)NC(=O)[C@H](CCN)NC1=O [Compound 49] (X5-[Dab]T[Dap][Dab][Dab][dL][Abu][Dab][Dab]T; lactam 4-C) | 0.25 µg/mL (≈ 0.218 µM) | 4 µg/mL (≈ 3.49 µM) | 2 µg/mL (≈ 1.75 µM) | <0.125 µg/mL | <0.125 µg/mL | 0.25 µg/mL (≈ 0.218 µM) | 1 µg/mL (≈ 0.873 µM) | 0.5 µg/mL (≈ 0.437 µM) | <0.125 µg/mL | 0.5 µg/mL (≈ 0.437 µM) | <0.125 µg/mL | 0.25 µg/mL (≈ 0.218 µM) | 1 µg/mL (≈ 0.873 µM) |
| CC(C)C[C@H]1NC(=O)[C@H](CCN)NC(=O)[C@@H](NC(=O)[C@H](CN)NC(=O)[C@@H](NC(=O)[C@H](CCN)NC(=O)c2sc(Br)cc2Br)[C@@H](C)O)CCNC(=O)[C@H]([C@@H](C)O)NC(=O)[C@H](CCN)NC(=O)[C@H](CCN)NC(=O)[C@H](C)NC1=O [Compound 99] (X50-[Dab]T[Dap][Dab][Dab][dL]A[Dab][Dab]T; lactam 4-C) | 0.25 µg/mL (≈ 0.201 µM) | 0.5 µg/mL (≈ 0.403 µM) | 1 µg/mL (≈ 0.806 µM) | <0.125 µg/mL | <0.125 µg/mL | 0.25 µg/mL (≈ 0.201 µM) | <0.125 µg/mL | 0.25 µg/mL (≈ 0.201 µM) | <0.125 µg/mL | 1 µg/mL (≈ 0.806 µM) | 0.25 µg/mL (≈ 0.201 µM) | 0.25 µg/mL (≈ 0.201 µM) | 0.5 µg/mL (≈ 0.403 µM) |
| CC(C)C[C@H]1NC(=O)[C@H](CCN)NC(=O)[C@@H](NC(=O)[C@H](CN)NC(=O)[C@@H](NC(=O)[C@H](CCN)NC(=O)c2cc(Cl)ccn2)[C@@H](C)O)CCNC(=O)[C@H]([C@@H](C)O)NC(=O)[C@H](CCN)NC(=O)[C@H](CCN)NC(=O)[C@H](C)NC1=O [Compound 97] (X29-[Dab]T[Dap][Dab][Dab][dL]A[Dab][Dab]T; lactam 4-C) | 0.25 µg/mL (≈ 0.225 µM) | 2 µg/mL (≈ 1.8 µM) | 2 µg/mL (≈ 1.8 µM) | 0.5 µg/mL (≈ 0.449 µM) | <0.125 µg/mL | 0.25 µg/mL (≈ 0.225 µM) | 0.25 µg/mL (≈ 0.225 µM) | 0.25 µg/mL (≈ 0.225 µM) | <0.125 µg/mL | 2 µg/mL (≈ 1.8 µM) | 0.25 µg/mL (≈ 0.225 µM) | 0.25 µg/mL (≈ 0.225 µM) | 2 µg/mL (≈ 1.8 µM) |
| CC[C@@H]1NC(=O)[C@@H](CC(C)C)NC(=O)[C@H](CCN)NC(=O)[C@@H](NC(=O)[C@H](CN)NC(=O)[C@@H](NC(=O)[C@H](CCN)NC(=O)c2cncc(Br)c2)[C@@H](C)O)CCNC(=O)[C@H]([C@@H](C)O)NC(=O)[C@H](CCN)NC(=O)[C@H](CCN)NC1=O [Compound 23] (X33-[Dab]T[Dap][Dab][Dab][dL][Abu][Dab][Dab]T; lactam 4-C) | 0.25 µg/mL (≈ 0.213 µM) | 0.5 µg/mL (≈ 0.427 µM) | 2 µg/mL (≈ 1.71 µM) | 0.5 µg/mL (≈ 0.427 µM) | <0.125 µg/mL | 0.25 µg/mL (≈ 0.213 µM) | 4 µg/mL (≈ 3.42 µM) | 0.25 µg/mL (≈ 0.213 µM) | 0.5 µg/mL (≈ 0.427 µM) | 0.5 µg/mL (≈ 0.427 µM) | 0.5 µg/mL (≈ 0.427 µM) | 0.5 µg/mL (≈ 0.427 µM) | 0.5 µg/mL (≈ 0.427 µM) |
